Source: US20090068744A1, “VITREOUS CELL LINE” (SENJU PHARMACEUTICAL CO., LTD., priority 2006, published 2009)

Each substance was assayed on HAS2 expression by a vitreous cell line (assay: HAS2 mRNA expression by RT-PCR after cytokine stimulation of the vitreous cell line). Settings: cell line transfected with Smad2, 3 or 4; FIG. 5.
Assay type: cell-based, swine
Procedure: Next, expression of hyaluronic acid synthase (HAS)2 and the effect of PDGF-BB and/or TGF-β1 on the hyaluronic acid production in the established vitreous cell line were examined. The expression was observed by RT-PCR.
To be specific, when the vitreous cell line was 50-60% confluent, the medium of the cells was exchanged with DMEM containing 1% bovine serum and, after culturing for 24 hr, the cells were stimulated with TGF-β1 (10 ng/ml) and PDGF-BB (10 ng/ml). In a part of the examination, Smad2, 3 or 4 was transfected into the cell line after 6 hr from the medium exchange. The cells and culture supernatant were recovered at 3, 6, 24 and 48 hr after the cytokine stimulation (FIG. 2). Total RNA was extracted from the cells, cDNA was synthesized, and RT-PCR was performed using primers specific to HAS2. Using Roche FastStart High Fidelity PCR System, PCR was performed on Gene Amp PCR System 9700 (Applied Biosystems). The PCR conditions were as follows:
95° C. 2 min.→(95° C. 30 seconds→X° C. 30 seconds→72° C. […])×Y cycle→72° C. 7 min
X=60, Y=25 . . . beta-Actin

Row | Substance | expression of HAS2 under forced expression of Smad2, 3 or 4
1 | TGF-β1: cytokine used to stimulate the vitreous cell line (10 ng/ml) | resulted in the expression of HAS2

Each substance was assayed on VEGF mRNA expression by a vitreous cell line (assay: VEGF mRNA expression by RT-PCR after cytokine stimulation of the vitreous cell line). Settings: cytokine 10 ng/ml, up to 48 hours; FIG. 7, FIG. 9.
Assay type: cell-based, swine
Procedure: Changes of VEGF expression due to cytokine stimulation in the vitreous cell line established in Example 1 were examined. The expression of VEGF at an mRNA level was examined by RT-PCR, and the expression at a protein level was examined by ELISA.
To be specific, when the vitreous cell line reached 50-60% confluent, the medium for the cells was exchanged with DMEM containing 1% bovine serum. […] Total RNA was extracted from the stimulated cells, cDNA was synthesized, and PCR was conducted using VEGF primers. The medium of the stimulated cells was used for ELISA. Since an appropriate antibody to swine VEGF is not available, VEGF protein concentration was measured by ELISA using an antibody to human VEGF, and the result was calculated as a reference value led from a human VEGF standard product. PCR was conducted using TOYOBO KOD plus kit and Gene PCR System 9700 (Applied Biosystem). The conditions of PCR were as follows:
95° C. 120 seconds; (95° C. 15 seconds, 62° C. 30 seconds, 68° C. 30 seconds)×30 cycles; 68° C. 90 seconds. ELISA was entrusted to Mitsubishi BCL.

Row | Substance | VEGF mRNA expression level
2 | IL-1β: cytokine used to stimulate the vitreous cell line (10 ng/ml) | a significant change in the VEGF mRNA expression level was not observed
3 | IL-6: cytokine named among other cytokines used for stimulation | a significant change in the VEGF mRNA expression level was not observed
4 | PDGF-AA: cytokine used to stimulate the vitreous cell line (10 ng/ml) | a significant change in the VEGF mRNA expression level was not observed
5 | TGFβ | a significant change in the VEGF mRNA expression level was not observed
6 | TNFα | a significant change in the VEGF mRNA expression level was not observed
